Experimental data: US20070154540A1 (KMSI CO., LTD., priority 2003, published 2007)

Experiments:
[1] = system: osteoarthritis-induced New Zealand white rabbits; assay: Collagen levels in joint synovial fluids (Sirius Red staining); type: in vivo
Excerpt: (§1) To prepare an osteoarthritis animal model, New Zealand white rabbits underwent anterior cruciate ligament transection (ACLT) in joints of their two hind legs. After three days, the rabbits were forced to sustain movement for four weeks in a space of 5×5 m^3 to induce substantial osteoarthritis. […] The following Examples 3 to 10 were all performed using joints of the osteoarthritis-induced New Zealand white rabbits prepared as in this Example 2.
Total collagen levels in synovial fluids were measured by Sirius Red staining (Heide T. R. et al., Histochem. […]. Then, total collagen levels were determined by measuring absorbance at 550 nm. A standard curve was obtained by measuring absorbance at 550 nm for collagen type I (C1188, Sigma) of various concentrations of 0, 100, 200, 300, 400 and 500 μg. Using the standard curve, collagen levels in synovial fluids were determined.

[2] = system: osteoarthritis-induced New Zealand white rabbits; assay: Nitric oxide levels in synovial fluids (Griess reaction); type: in vivo
Excerpt: as §1
A synovial fluid and a Griess reagent were mixed at a ratio of 1:1 (100 μl: 100 μl) and allowed to stand at room temperature for 10 min, and absorbance was measured at 540 nm using a spectrophotometer (Power Wave X340, Bio-Tek). The Griess reagent was prepared in a final volume of 10 ml using 0.1 g of sulfanilamide (S9251, Sigma), 0.5 ml of phosphoric acid (P6560, Sigma) and 0.01 g of N-naphthyl-diamine-H-chloride (102397, ICN). A quantitative curve for nitrite was obtained using sodium nitrite (S2252, Sigma).

[3] = system: osteoarthritis-induced New Zealand white rabbits; assay: Proteoglycan levels in joint synovial fluids (1,9-dimethylmethylene blue assay); type: in vivo
Excerpt: as §1
In the joint synovial fluids prepared in Example 3, proteoglycan levels were measured using a 1,9-dimethylmethylene blue assay (Houselmann H. J. et al., Am. J. Physiol. 271:C742-752, (1996)). A synovial fluid sample of 50 μl was mixed with 250 μl of 1,9-dimethylmethylene blue (34,108-8, Aldrich), and absorbance was measured at 530 nm using a spectrophotometer (Power Wave X340, Bio-Tek).

IκBα = assay: Western blotting of IκBα expression in LPS-treated RAW 264.7; type: cell-based, mice; settings: normal = 100%, LPS (two hours) 18.56%, 10 μM of apigenin
Description: A macrophage cell line derived from mice, RAW 264.7 (KCLB 40071), was purchased from the Korean Cell Line Bank. RAW 264.7 cells were seeded in a density of 3×10^6 cells onto 60-mm culture dishes containing DMEM (Dulbecco's Modified Eagle Medium, 12800-017, Gibco) supplemented with 10% FBS (fetal bovine serum, 26140-079, Gibco), 100 U/ml of penicillin and 100 μg/ml streptomycin (15140-122, Gibco), and cultured at 37° C. under 5% CO2 and humidity for 24 hrs. To induce NO production, RAW 264.7 cells were treated with 500 ng/ml of an E. coli cell wall component, lipopolysaccharide (LPS, […], Sigma). […] Herein, LPS was dissolved in distilled water, and apigenin was dissolved in DMSO. Then, the culture medium and a Griess reagent were mixed at a ratio of 1:1 (100 μl: 100 μl) and allowed to stand at room temperature for 10 min. Thereafter, absorbance was measured at 540 nm using a spectrophotometer (Power Wave X340, Bio-Tek). RAW 264.7 cells were treated under the same conditions as in Example 12. […] Herein, for IκBα expression, the cells were treated with LSP for only two hours. […] After protein concentrations in cell lysates were measured, […] protein samples were separated on an 8-16% SDS (sodium dodecyl sulfate) polyacrylamide gel (EC60452, NOVEX). […]

[4] = apigenin-treated right leg (+), four weeks after drug injection
[5] = apigenin-treated right leg (+), four weeks after drug injection, listed as Apigenin
[6] = apigenin-treated right leg (+), two weeks after drug injection
[7] = non-treated left leg (−) of apigenin treatment group, four weeks after drug injection
[8] = non-treated left leg (−) of apigenin treatment group, two weeks after drug injection

SMILES: O=c1cc(-c2ccc(O)cc2)oc2cc(O)cc(O)c12 [apigenin, 4′,5,7-trihydroxyflavone]
- Collagen levels in joint synovial fluids [1, 4]: 406.56 µg/mL
- Collagen levels in joint synovial fluids [1, 5]: 406.6 ± 0.63 µg/mL
- Collagen levels in joint synovial fluids [1, 6]: 397.4 ± 0.69 µg/mL
- Collagen levels in joint synovial fluids [1, 7]: about 1019.2 μg/ml
- Collagen levels in joint synovial fluids ([1]; non-treated left leg (−) of apigenin treatment group, four weeks after drug injection, listed as Apigenin): 1019.2 ± 0.79 µg/mL
- Collagen levels in joint synovial fluids [1, 8]: 749.4 ± 0.46 µg/mL
- NO levels in synovial fluids [2, 4]: about 6.01 μM
- NO levels in synovial fluids [2, 5]: 6.01 ± 0.88 µM
- NO levels in synovial fluids [2, 6]: 7.53 ± 4.66 µM
- NO levels in synovial fluids [2, 7]: 5.5 ± 4.59 µM
- NO levels in synovial fluids [2, 8]: 0.65 ± 0.06 µM
- Proteoglycan levels in joint synovial fluids [3, 4]: about 12.22 μg/ml
- Proteoglycan levels in joint synovial fluids [3, 5]: 12.22 ± 0.4 µg/mL
- Proteoglycan levels in joint synovial fluids [3, 6]: 10.32 ± 0.66 µg/mL
- Proteoglycan levels in joint synovial fluids [3, 7]: 34.09 ± 0.24 µg/mL
- Proteoglycan levels in joint synovial fluids [3, 8]: 22.90 ± 0.86 µg/mL
- IκBα expression level (IκBα): 75.82%
